# System: HT-1080 cells
# Test: Lethality of commercially available CIL41/70 structural analogs
# Format: cell-based
# Conditions: Homo sapiens, tested once in technical triplicates
# Protocol: 1,000 cells per 36 μl were seeded in each well in 384-well plates. Lethal compounds were dissolved, and a twofold, 12-point dilution series was prepared in DMSO. Compound solutions were further diluted with media at 1:25, and 4 μl per well of the diluted solutions was added to cell cultures immediately after cells were seeded. […] When other cell-death-modulating compounds (100 nM sodium selenite, 1 μM cerivastatin, 100 μg/mL mevalonic acid) were used in cotreatments, they were supplemented to cell culture for 24 h before lethal compounds were added to cell culture, after which cells were further incubated for 24 h at 37° C. under 5% CO2. On the day of the viability measurement, we added 10 μl per well of 50% Alamar Blue diluted in media (Life Technologies) and further incubated the cells at 37° C. for 6 h. Fluorescence intensity (excitation/emission: 530/590) was measured with a Victor 3 plate reader (PerkinElmer), and the normalized viability was calculated as VL=(IL−I0)/(IV−I0), where VL, I0, IV, and IL are the normalized viability and the raw fluorescence intensities from the wells containing media, cells treated with a vehicle (negative control), and cells with the lethal compound (L), respectively. When the effect of a chemical modulator (M) on L was calculated, we instead used the equation VL|M=(IM,L−I0)/(IM,V−I0), where VL|M, IM,L and IM,V are the normalized viability, and fluorescence intensity from cells treated with […], respectively. The viability was typically measured in biological triplicate unless otherwise specified. A representative dose-response curve, the mean and standard error of normalized viability from one replicate were plotted. HT-1080 viability after modulator treatments corresponding to FIG. 3C and FIGS. 5E-5F is available in FIGS. 19A-19C.
# Their lethality was tested once in HT-1080 cells in technical triplicates.
row,Compound,EC50
1,CC(=O)NC(=N/OC(C)=O)/C(=N/OC(C)=O)c1nc2ccccc2[nH]1 [CB20],> 20 mg/L
2,Cc1ccccc1OCC(=O)O/N=C(\N)Cc1cccs1 [CB21],> 20 mg/L
3,COc1ccccc1C/C(N)=N/OC(=O)COc1ccc(C)cc1Br [CB22],> 20 mg/L
4,Cc1ccc(OCC(=O)O/N=C(\N)Cc2cccs2)c(Br)c1 [CB23],> 20 mg/L
5,N/C(Cc1cccs1)=N\OC(=O)COc1ccccc1 [CB24],> 20 mg/L
6,Cc1ccc(OCC(=O)O/N=C(\N)Cc2ccc([N+](=O)[O-])cc2)c(Br)c1 [CB25],> 20 mg/L
7,COc1ccccc1C/C(N)=N/OC(=O)COc1cccc(C)c1 [CB26],> 20 mg/L
8,N/C(Cc1cccc2ccccc12)=N\OC(=O)COc1ccccc1 [CB27],> 20 mg/L
9,Cc1ccccc1OCC(=O)O/N=C(\N)Cc1ccc(Cl)cc1Cl [CB28],> 20 mg/L
10,COc1ccccc1C/C(N)=N/OC(=O)COc1ccc(C)cc1 [CB29],> 20 mg/L
11,N/C(Cc1cccs1)=N\OC(=O)COc1ccc(Br)cc1 [CB30],> 20 mg/L
12,COc1ccc(C/C(N)=N/OC(=O)COc2ccccc2C)cc1 [CB31],> 20 mg/L
13,N/C(Cc1ccc(Cl)cc1Cl)=N\OC(=O)COc1ccccc1 [CB32],> 20 mg/L
14,COc1ccccc1C/C(N)=N/OC(=O)COc1ccccc1C [CB33],> 20 mg/L
15,Cc1cccc(OCC(=O)O/N=C(\N)Cc2ccc(Cl)cc2)c1 [CB34],> 20 mg/L
16,Cc1cccc(OCC(=O)O/N=C(\N)Cc2ccc(Cl)cc2Cl)c1 [CB35],> 20 mg/L
17,COc1ccc(C/C(N)=N/OC(=O)COc2ccc(Br)c(C)c2)cc1OC [CB36],> 20 mg/L
18,COc1ccc(C/C(N)=N/OC(=O)COc2ccc(Br)c(C)c2)cc1 [CB37],> 20 mg/L
19,Cc1cc(OCC(=O)O/N=C(\N)Cc2cccs2)ccc1Br [CB38],> 20 mg/L
20,Cc1cccc(OCC(=O)O/N=C(\N)Cc2ccc([N+](=O)[O-])cc2)c1 [CB39],> 20 mg/L
21,Cc1cccc(OCC(=O)O/N=C(\N)Cc2cccs2)c1 [CB40],> 20 mg/L
22,COc1ccccc1C/C(N)=N/OC(=O)COc1ccc(Br)cc1 [CB41],> 20 mg/L
23,N/C(Cc1ccc(Cl)cc1)=N\OC(=O)COc1ccc(Br)cc1 [CB42],> 20 mg/L
24,N/C(Cc1ccc([N+](=O)[O-])cc1)=N\OC(=O)COc1ccc(Br)cc1 [CB43],> 20 mg/L
25,Cc1cccc(OCC(=O)O/N=C(\N)Cc2cccc3ccccc23)c1 [CB44],> 20 mg/L

row,Compound,EC50
1,COc1ccccc1C/C(N)=N/OC(=O)COc1ccc(Br)c(C)c1 [CB45],> 20 mg/L
2,Cc1ccccc1OCC(=O)O/N=C(\N)Cc1cccc2ccccc12 [CB46],> 20 mg/L
3,COc1ccc(C/C(N)=N/OC(=O)COc2ccc(C)cc2Br)cc1 [CB47],> 20 mg/L
4,N/C(Cc1ccc(Cl)c(Cl)c1)=N\OC(=O)COc1ccccc1 [CB48],> 20 mg/L
5,COc1ccccc1C/C(N)=N/OC(=O)COc1cc(C)c(Cl)c(C)c1 [CB49],7.23 mg/L
6,Cc1cc(OCC(=O)O/N=C(\N)Cc2ccc([N+](=O)[O-])cc2)cc(C)c1Cl [CB50],> 20 mg/L
7,COc1ccc(CC(=O)O/N=C(\N)Cc2ccc([N+](=O)[O-])cc2)cc1OC [CB51],> 20 mg/L
8,COc1ccccc1C/C(N)=N/OC(=O)COc1ccc(Cl)cc1 [CB52],> 20 mg/L
9,COc1ccc(C/C(N)=N/OC(=O)COc2ccc3ccccc3c2)cc1 [CB53],> 20 mg/L
10,COc1ccc(C[C@@H](N)NOC(=O)C(c2ccccc2)c2ccccc2)cc1OC [CB54],> 20 mg/L
11,N/C(Cc1ccc(Cl)cc1)=N\OC(=O)CCc1ccccc1 [CB55],> 20 mg/L
12,N/C(Cc1ccc([N+](=O)[O-])cc1)=N\OC(=O)C(c1ccccc1)c1ccccc1 [CB56],4.05 mg/L
13,N[C@H](Cc1ccc([N+](=O)[O-])cc1)NOC(=O)COc1ccc2ccccc2c1 [CB57],> 20 mg/L
14,N/C(Cc1ccc(Cl)cc1)=N\OC(=O)C1CCCCC1 [CB58],17.6 mg/L
15,COc1ccc(CC(=O)O/N=C(\N)Cc2ccc(Cl)cc2Cl)cc1OC [CB59],> 20 mg/L
16,COc1ccc(C/C(N)=N/OC(=O)Cc2ccc(OC)c(OC)c2)cc1 [CB60],> 20 mg/L
17,COc1ccccc1C/C(N)=N/OC(=O)COc1ccc2ccccc2c1 [CB61],> 20 mg/L
18,COc1ccccc1C/C(N)=N/OC(=O)/C=C/c1ccccc1 [CB62],8.63 mg/L
19,COc1ccc(C/C(N)=N/OC(=O)CCc2ccccc2)cc1 [CB63],> 20 mg/L
20,COc1ccc(CC(=O)O/N=C(\N)Cc2cccc3ccccc23)cc1OC [CB64],> 20 mg/L
21,COc1ccc(C/C(N)=N/OC(=O)Cc2ccccc2)cc1OC [CB65],> 20 mg/L
22,COc1ccc(C/C(N)=N/OC(C)=O)cc1OC [CB66],> 20 mg/L
23,N/C(Cc1ccc([N+](=O)[O-])cc1)=N\OC(=O)COc1ccccc1Cl [CB67],> 20 mg/L
24,N/C(Cc1cccs1)=N\OC(=O)COc1ccccc1Cl [CB68],> 20 mg/L
25,N/C(Cc1cccs1)=N\OC(=O)C12CC3CC(CC(C3)C1)C2 [CB69],2.09 mg/L

row,Compound,EC50
1,Cc1cc(OCC(=O)O/N=C(\N)Cc2ccc([N+](=O)[O-])cc2)ccc1Cl [CB71],> 20 mg/L
2,COc1ccc(OCC(=O)O/N=C(\N)Cc2ccc(Cl)cc2Cl)cc1 [CB72],> 20 mg/L
3,N/C(Cc1cccc2ccccc12)=N\OC(=O)COc1ccccc1Cl [CB73],> 20 mg/L
4,COc1ccc(OCC(=O)O/N=C(\N)Cc2cccs2)cc1 [CB74],> 20 mg/L
5,N/C(Cc1cccs1)=N\OC(=O)COc1ccc(Cl)cc1Cl [CB75],> 20 mg/L
6,N/C(Cc1ccc([N+](=O)[O-])cc1)=N\OC(=O)COc1ccc(Br)cc1Cl [CB76],> 20 mg/L
7,N/C(Cc1ccc([N+](=O)[O-])cc1)=N\OC(=O)CCCc1ccccc1 [CB77],> 20 mg/L
8,N/C(Cc1cccs1)=N\OC(=O)COc1ccc(Br)cc1Cl [CB78],> 20 mg/L
9,CCc1ccc(OCC(=O)O/N=C(\N)Cc2ccc([N+](=O)[O-])cc2)cc1 [CB79],> 20 mg/L
10,N/C(Cc1ccc([N+](=O)[O-])cc1)=N\OC(=O)Cc1ccccc1 [CB80],> 20 mg/L
11,CCc1ccc(OCC(=O)O/N=C(\N)Cc2cccc3ccccc23)cc1 [CB81],> 20 mg/L
12,CC(Oc1ccc(Cl)cc1Cl)C(=O)O/N=C(\N)Cc1ccc([N+](=O)[O-])cc1 (centres unmarked) [CB82],> 20 mg/L
13,N/C(Cc1ccc([N+](=O)[O-])cc1)=N\OC(=O)CC1CCCCC1 [CB83],> 20 mg/L
14,COc1ccc(CC(=O)O/N=C(\N)Cc2ccc(OC)cc2)cc1 [CB84],> 20 mg/L
15,N/C(Cc1cccc2ccccc12)=N\OC(=O)CC1CCCCC1 [CB85],> 20 mg/L
16,COc1ccc(CC(=O)C/N=C(\N)Cc2cccc3ccccc23)cc1 [CB86],> 20 mg/L
17,Cc1ccc(OCC(=O)O/N=C(\N)Cc2ccc(Cl)cc2Cl)cc1C [CB87],> 20 mg/L
18,CC(C)c1ccc(OCC(=O)O/N=C(\N)Cc2ccc(Cl)cc2Cl)cc1 [CB88],> 20 mg/L
19,Cc1ccc(OCC(=O)O/N=C(\N)Cc2cccc3ccccc23)cc1C [CB89],> 20 mg/L
20,CC(C)c1ccc(OCC(=O)O/N=C(\N)Cc2cccc3ccccc23)cc1 [CB90],> 20 mg/L
21,COc1ccc(C/C(N)=N/OC(=O)COc2ccc(C)c(C)c2)cc1 [CB91],> 20 mg/L
22,Cc1ccc(OCC(=O)O/N=C(\N)Cc2ccc([N+](=O)[O-])cc2)cc1C [CB92],> 20 mg/L
23,CC(C)c1ccc(OCC(=O)O/N=C(\N)Cc2ccc([N+](=O)[O-])cc2)cc1 [CB93],> 20 mg/L
24,Cc1ccc(OCC(=O)ON[C@H](N)Cc2cccs2)cc1C [CB94],> 20 mg/L
25,Cc1cc(OCC(=O)O/N=C(\N)Cc2ccc([N+](=O)[O-])cc2)cc(C)c1Br [CB95],> 20 mg/L

row,Compound,EC50
1,N/C(Cc1ccc([N+](=O)[O-])cc1)=N\OC(=O)CCC1CCCCC1 [CB96],> 20 mg/L
2,COc1ccccc1CC(=O)O/N=C(\N)Cc1ccc(Cl)cc1Cl [CB97],> 20 mg/L
3,CCC(C(=O)O/N=C(\N)Cc1ccc(Cl)cc1Cl)c1ccccc1 (centres unmarked) [CB98],4.46 mg/L
4,COc1ccccc1CC(=O)O/N=C(\N)Cc1ccc([N+](=O)[O-])cc1 [CB99],> 20 mg/L
5,N/C(Cc1ccc(Cl)cc1Cl)=N\OC(=O)Cc1cccs1 [CB100],> 20 mg/L
6,COc1ccccc1OCC(=O)O/N=C(\N)Cc1ccc(Cl)cc1Cl [CB101],> 20 mg/L
7,Cc1cc(OCC(=O)O/N=C(\N)Cc2cccc3ccccc23)cc(C)c1Br [CB102],> 20 mg/L
8,N/C(Cc1ccc([N+](=O)[O-])cc1)=N\OC(=O)Cc1cccs1 [CB103],> 20 mg/L
9,Cc1cc(Br)ccc1OCC(=O)O/N=C(\N)Cc1ccc([N+](=O)[O-])cc1 [CB104],> 20 mg/L
10,N/C(Cc1cccc2ccccc12)=N\OC(=O)CCC1CCCCC1 [CB105],> 20 mg/L
11,Cc1cc(OCC(=O)O/N=C(\N)Cc2ccc(Cl)cc2Cl)cc(C)c1Br [CB106],> 20 mg/L
12,Cc1cc(Br)ccc1OCC(=O)O/N=C(\N)Cc1cccc2ccccc12 [CB107],> 20 mg/L
13,COc1ccccc1CC(=O)O/N=C(\N)Cc1cccc2ccccc12 [CB108],> 20 mg/L
14,N/C(Cc1cccc2ccccc12)=N\OC(=O)Cc1cccs1 [CB109],> 20 mg/L
15,Cc1cc(Br)ccc1OCC(=O)O/N=C(\N)Cc1ccc(Cl)cc1Cl [CB110],> 20 mg/L
16,CCC(C(=O)O/N=C(\N)Cc1cccc2ccccc12)c1ccccc1 (centres unmarked) [CB111],10.7 mg/L
17,Cc1cccc(OCC(=O)O/N=C(\N)Cc2ccc(Cl)c(Cl)c2)c1C [CB112],> 20 mg/L
18,CC(C)(Oc1ccc(Cl)cc1)C(=O)O/N=C(\N)Cc1cccc2ccccc12 [CB113],> 20 mg/L
19,N/C(Cc1cccc2ccccc12)=N\OC(=O)Cc1ccccc1[N+](=O)[O-] [CB114],> 20 mg/L
20,N/C(Cc1ccc([N+](=O)[O-])cc1)=N\OC(=O)CC(c1ccccc1)c1ccccc1 [CB115],2.42 mg/L
21,CC(C)(Oc1ccc(Cl)cc1)C(=O)O/N=C(\N)Cc1ccc(Cl)c(Cl)c1 [CB116],5.49 mg/L
22,CC(C)(Oc1ccc(Cl)cc1)C(=O)O/N=C(\N)Cc1ccc([N+](=O)[O-])cc1 [CB117],> 20 mg/L
23,Cc1cccc(OCC(=O)O/N=C(\N)Cc2ccc([N+](=O)[O-])cc2)c1C [CB118],> 20 mg/L

# Reference: US10947188B2, “Small molecule ferroptosis inducers” (THE TRUSTEES OF COLUMBIA UNIVERSITY IN THE CITY OF NEW YORK, priority 2016, dated 2021)
